In one assay the target is T1, hPTP1B1–400 (Homo sapiens, UniProt P18031).
T1 construct: h PTP1B 1–400 IC 50 (μM ± S.D); made in house
T1 sequence (P18031 1-400): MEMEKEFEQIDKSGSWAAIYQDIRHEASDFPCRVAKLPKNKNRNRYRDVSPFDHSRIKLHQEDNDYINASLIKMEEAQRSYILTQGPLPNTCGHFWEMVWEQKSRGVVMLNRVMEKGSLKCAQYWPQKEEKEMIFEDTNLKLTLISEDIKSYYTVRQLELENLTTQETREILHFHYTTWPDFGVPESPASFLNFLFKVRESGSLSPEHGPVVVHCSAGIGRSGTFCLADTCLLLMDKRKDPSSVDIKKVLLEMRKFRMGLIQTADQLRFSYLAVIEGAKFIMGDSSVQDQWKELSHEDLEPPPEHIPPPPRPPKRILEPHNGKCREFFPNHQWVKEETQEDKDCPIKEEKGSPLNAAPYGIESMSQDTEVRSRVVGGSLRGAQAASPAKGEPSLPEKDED
Put plainly: PTP1B inhibition, pNPP hydrolysis, long form. It counts as biochemical. As to conditions: pNPP substrate, 15 min 37 °C, pH 6.8; ± S.D. How it is done: The inhibitory activity of PTP1B was assessed using the long form of the PTP1B enzyme (hPTP1B1–400). This enzyme comprises a highly conserved N-terminal catalytic domain, known as the PTP domain (PTP1B1–300), in addition to an intrinsically disordered regulatory domain (PTP1B301–400).
The IC50 values obtained from these tests are detailed in Table .
Aliquots of 0–10 μL of the test compounds (triplicate) were taken and incubated for 15 min at 37 °C with 85 μL of Tris buffer solution (50 mM, pH 6.8) containing PTP1B enzyme and 5 μL of p-nitrophenyl phosphate substrate (pNPP, 10 mM). The absorbance of the hydrolysis product, p-nitrophenol (pNP), was measured at 405 nm using a 96-microplate absorbance reader (Accuris SmartReader 96). The inhibitory activity was determined according to eq . %enzyme=(A405b/A405c)×100 1 Where: % enzyme is the percentage of inhibition for PTP1B or TCPTP
The IC50 was calculated using regression analysis, eq : %inhibition=A100/1+(I/IC50)^s 2 Where: A100: Maximum inhibition

For assay [1], the system named is STZ-induced diabetic rats. As to conditions: earlier study of the group; cited from earlier work.
A further assay concerns HepG2 cells. As to the kind of experiment: Western blotting, HepG2 normal model. It counts as cell-based, human. As to conditions: 24 h. How it is done: (§1) HepG2 cells were obtained directly from ATCC (HB-8065) and cultured in DMEM with low glucose, supplemented with fetal bovine serum, 100 U/mL penicillin G, and […] streptomycin. The media was freshly prepared and sterilized by filtration. Cells were maintained with a maximum of 10 passages before being discarded. For cell counting, the cells were washed twice with phosphate-buffered saline (PBS), trypsinized, and counted using a Neubauer chamber. For the insulin-resistant model, 75,000 cells per well were seeded in 6-well plates at 37 °C in 5% CO2 and cultured for 72 h. Subsequently, insulin (0.1 μM) was added to induce insulin resistance for 24 h. After this period, inhibitors were incubated for 24 h, followed by a final 30 min insulin stimulation (0.1 μM) before protein extraction. For the normal model, 75,000 cells per well were seeded in 6-well plates at 37 °C in 5% CO2 and cultured for 96 h. After that, the cells were incubated with the inhibitors for 24 h, followed by protein extraction.
(§2) Treated cells were washed twice with 1 mL of PBS, and proteins were extracted using 300 μL of a buffer solution containing 10% sodium deoxycholate in 10% TEAB, supplemented with a protease and phosphatase inhibitor cocktail. The extracts were heated at 80 °C for 5 min and dissociated by repeated passages through an insulin syringe. The cell extracts were centrifuged at 15,000 rpm for 15 min at 4 °C, and the supernatant was collected. Protein quantification was performed using the bicinchoninic acid assay, and aliquots were prepared for Western blotting. SDS-PAGE was conducted, and proteins were transferred onto a nitrocellulose membrane. The membrane was blocked with 10% skim milk in TBST for 1 h and incubated overnight with primary antibodies (1:400 dilution). Secondary antibodies conjugated to horseradish peroxidase were diluted 1:2,000, and the membranes were incubated for 1 h at room temperature. Blots were visualized using the ChemiDoc MP (Bio-Rad), and densitometric analysis was performed with ImageJ (U.S. National Institutes of Health). Statistical analyses were conducted using GraphPad Prism 8.0.
compounds at 24 h of treatment. β-actin was employed as loading control. b) Densitometric analysis of western blot images
employing ImageJ analysis software. Bar graphs represent the mean ± SEM of normalized values. The control levels were set to
1. Asterisks indicate statistical significance according to the Dunn test. p* < 0.05
(§3) (1 picture or pasted object on this page, not shown here)

The subject of assay [2] is insulin-resistant HepG2 cells. As to the kind of experiment: Western blotting, insulin-resistant HepG2 model. As to conditions: 24 h. The assay is classed as cell-based, human. How it is done:
as §1, §2
resistance model in HepG2 cells . a) Western blotting representative analysis (n=3) of PTP1B, p -AKT, p-IRS1 and p-STAT3 levels
of HepG2 cells treated with the compounds at 24 h of treatment. β-actin was employed as loading control. b) Densitometric
analysis of western blot images employing ImageJ analysis software. Bar graphs represent the mean ± SEM of normalized values.
The control levels were set to 1. Asterisks indicate statistical significance according to the Dunn test. p* < 0.05.
as §3
On the technique in general: A western blot detects proteins with antibodies after separation by electrophoresis.

In assay [3] the test system is STZ-induced diabetic CD-1 mice. As to the kind of experiment: Insulin tolerance test (ITT). The assay is classed as in vivo. As to conditions: 45 mg/kg, insulin 0.75 IU after 30 min. How it is done: The studies were carried out on compounds 4b, 4g, and 5g using both normoglycemic CD1 mice and a mouse model of noninsulin-dependent diabetes mellitus (NIDDM). An oral glucose tolerance test (OGTT) was conducted on the normoglycemic mice to evaluate the hypoglycemic activity of the compounds, while an insulin tolerance test (ITT) was performed on hyperglycemic CD1 mice to assess the compounds' capacity to enhance insulin sensitivity in streptozotocin-induced diabetic mice. Pioglitazone and GA were included as positive controls. […] Healthy six-week-old male CD-1 mice, weighing between 30 and 40 g, were maintained at a temperature of 25 ± 2 °C, under a 12-h light/dark cycle and 45-65% humidity throughout the experimental period. The mice were provided with a rodent pelleted diet (Harlan Laboratories, Indianapolis, USA) and had access to water ad libitum. Sixteen hours before the experiment, all mice were fasted but still had free access to water. All animal procedures were conducted in accordance with the Mexican Federal Regulations for Animal Experimentation and Care (SAGARPA, NOM-062-ZOO-1999, Mexico) and received approval from the Institutional Animal Care and Use Committee, following guidelines outlined in the US National Institutes of Health publication (No. 85-23, revised 1985). Streptozotocin (STZ) was dissolved in citrate buffer (pH 4.5), while nicotinamide was dissolved in a normal physiological saline solution. The noninsulin-dependent diabetes (NIDD) mouse model was induced in overnight-fasted mice through a single intraperitoneal injection of STZ (100 mg/kg). Nicotinamide was administered 15 min prior, at a dose of 20 mg/kg via intraperitoneal injection. […] Roche). […] Animals were categorized into five groups, each consisting of four mice (n = 4). The experimental groups received an oral suspension of compounds 4b, 4g, and 5g, prepared in a 10% Tween 20/water solution, at a dosage of 50 mg/kg body weight. A control group was treated with only the 10% Tween 20 solution. The final group was administered pioglitazone at a dose of 45 mg/kg, which is recognized as a reference drug for insulin sensitization. To evaluate glucose levels, blood samples were collected from the tails of the mice at 0, 30, 60, 90, and 120 min after the administration of the vehicle, test compound, or drug. Blood glucose concentration was measured using a commercial glucometer (Accu-Chek, Performa; Roche) and the enzymatic glucose dehydrogenase method. The percentage variation in glycemia was calculated by comparing the selected postadministration glycemia (G x ) with the initial value (G0) using the following formula: %[…]=[(Gx-G0)/G0]×100 where G0 represents the initial glycemia values and Gx indicates the glycemia values at +30, + 60, + 90, and +120 min, respectively. To evaluate the ability of GA derivatives to enhance insulin sensitivity in STZ-induced diabetic CD-1 mice, compounds 4b, 4g, and 5g were tested. Glycyrrhetinic acid (GA) and Pioglitazone served as positive controls. The GA derivatives and the positive controls were administered to the diabetic animals, followed by the administration of human rapid-acting insulin (0.75 IU) after 30 min. Subsequently, glucose levels were measured every 15 min.

In the next assay the test system is normoglycemic CD1 mice. As to the kind of experiment: Oral glucose tolerance test (OGTT). It counts as in vivo. As to conditions: 45 mg/kg, glucose 2 g/kg. How it is done: The studies were carried out on compounds 4b, 4g, and 5g using both normoglycemic CD1 mice and a mouse model of noninsulin-dependent diabetes mellitus (NIDDM). An oral glucose tolerance test (OGTT) was conducted on the normoglycemic mice to evaluate the hypoglycemic activity of the compounds, while an insulin tolerance test (ITT) was performed on hyperglycemic CD1 mice to assess the compounds’ capacity to enhance insulin sensitivity in streptozotocin-induced diabetic mice. Pioglitazone and GA were included as positive controls.
Healthy six-week-old male CD-1 mice, weighing between 30 and 40 g, were maintained at a temperature of 25 ± 2 °C, under a 12-h light/dark cycle and 45–65% humidity throughout the experimental period. The mice were provided with a rodent pelleted diet (Harlan Laboratories, Indianapolis, USA) and had access to water ad libitum. Sixteen hours before the experiment, all mice were fasted but still had free access to water. All animal procedures were conducted in accordance with the Mexican Federal Regulations for Animal Experimentation and Care (SAGARPA, NOM-062-ZOO-1999, Mexico) and received approval from the Institutional Animal Care and Use Committee, following guidelines outlined in the US National Institutes of Health publication (No. 85–23, revised 1985).
Animals were categorized into five groups, each consisting of four mice (n = 4). The experimental groups received an oral suspension of compounds 4b, 4g, and 5g, prepared in a 10% Tween 20/water solution, at a dosage of 50 mg/kg body weight. A control group was treated with only the 10% Tween 20 solution. The final group was administered pioglitazone at a dose of 45 mg/kg, which is recognized as a reference drug for insulin sensitization. To evaluate glucose levels, blood samples were collected from the tails of the mice at 0, 30, 60, 90, and 120 min after the administration of the vehicle, test compound, or drug. Blood glucose concentration was measured using a commercial glucometer (Accu-Chek, Performa; Roche) and the enzymatic glucose dehydrogenase method. The percentage variation in glycemia was calculated by comparing the selected postadministration glycemia (G x ) with the initial value (G0) using the following formula: %variationofglycemia=[(Gx−G0)/G0]×100 where G0 represents the initial glycemia values and Gx indicates the glycemia values at +30, + 60, + 90, and +120 min, respectively.
To determine the hypoglycemic effect of the compounds on nondiabetic animals, the compounds 4b, 4g, and 5g were administered intragastrically. Pioglitazone was used as a positive control. After 30 min, five mice/group (CD-1) were subjected to OGTT. The test was performed using glucose (2 g/kg) as substrate.

The values that follow come from paper PMC12921516 (ACS Bio & Med Chem Au, 2025).

One may read the IC50 as the concentration that gives 50% inhibition.

With `Cc1ccc(-n2ncc3c2C(C)(C)[C@@H]2CC[C@]4(C)[C@H](C(=O)C=C5[C@@H]6C[C@@](C)(C(=O)O)CC[C@]6(C)CC[C@]54C)[C@@]2(C)C3)cc1` [FC-122, reference compound], the IC50 on hPTP1B1–400 was found to be 2140 ± 150 nM. Further, the antihyperglycemic effects result in assay [1] was “superior antihyperglycemic effects compared to glibenclamide and acarbose, but did not outperform pioglitazone”.
Take `CN(C)C(=N)N=C(N)N` [Metformin]: in the assay with HepG2 cells, the “AKT phosphorylation (p-AKT) levels” value is “notable increase” and the PTP1B levels entry is given as “neither metformin, ursolic acid, nor the GA derivatives significantly reduced PTP1B levels”. Further, in assay [2], the “AKT phosphorylation (p-AKT) levels” value is recorded as “notable increase” and the PTP1B levels result is “neither metformin, ursolic acid, nor the GA derivatives significantly reduced PTP1B levels”.
Take `CCc1ccc(CCOc2ccc(CC3SC(=O)NC3=O)cc2)nc1` (centres unmarked) [Pioglitazone, reference compound]: in assay [3], the “glycemia variation in ITT” value is given as “markedly decrease glycemia variation”. In addition, the “hypoglycemic effect in OGTT” value in the assay on normoglycemic CD1 mice is on record as “the most significant reduction in the hyperglycemic peak”.
